{"source": "patent US20090306081A1", "about": "“Solid Dosage Formulations of Hydralazine Compounds and Nitric Oxide Donor Compounds” (priority 2006, published 2009)", "origin": "cited, not measured here", "data": [{"smiles": "O=[N+]([O-])O[C@H]1CO[C@H]2[C@@H]1OC[C@H]2O[N+](=O)[O-]", "note": "[Diluted isosorbide dinitrate, 1,4,3,6-dianhydro-D-glucitol-2,5-dinitrate]", "values": [{"measurement": "solubility in organic solvents", "setting": "organic solvents such as ethanol, ether and chloroform", "value": "freely soluble"}, {"measurement": "solubility in water", "setting": "water", "value": "sparingly soluble"}]}]}
